Consider one compound from PMC4128677, “Somatostatin Analogues for Receptor Targeted Photodynamic Therapy” (PLoS ONE, 2014).

Values joined by “and” are separate entries in the source; they are usually repeats but may differ in a detail not shown here. Equal entries are not always repeated.

For data set [1] the following is noted: PBS pH = 7.4; used as reference; cited from earlier work.
The conditions of data set [2]: PBS pH = 7.4; used as reference; cited from earlier work. An excerpt:
The fluorescence quantum yield of Ce6 in neutral pH was similar to conjugates 1 (ΦF = 0.18 for Ce6 and ΦF = 0.20 for 1).
This is another data set of the same source.

Data set [3] is described as follows: Steady-state absorption and fluorescence in PBS. In kind it is physicochemical. To be noted: PBS pH = 7.4. The protocol: Steady-State Fluorescence and Absorption Measurements. The fluorescence quantum yields (ΦF) of Ce6 and conjugates in PBS pH 7.4 were determined by a relative method. Ce6 in the buffer at pH 7.4 with the quantum yield of 0.18 [24,32,33] was used as a reference.
The absorption profile of Ce6 and conjugate in PBS of concentration (0.06–1µM) was recorded in Shimadzu spectrophotometer (UV-2101 PC, Duisburg, Germany).
The fluorescence emission of photosensitizers was recorded in a Perkin-Elmer spectrofluorimeter (LS 50B, Massachussetts, USA). Light at 408 nm was used for excitation. The concentration range of compounds matched to the O.D. up to 0.1.

Data set [4] is described as follows: Photobleaching under 652 nm irradiation in PBS. Type of data set: physicochemical. The protocol: Photobleaching measurements. The loss of photosensitizer absorbance and fluorescence during irradiation was used to monitor photobleaching. Solutions of Ce6 and Ce6-conjugates were prepared in PBS pH = 7.4. The concentration of photosensitizers were adjusted so that all absorb the same number of photons at irradiated region (O.D. = 0.014 at the λirr. = 652 nm (Biolitec pharma, UK). Data was acquired in quartz cuvettes in aerobic conditions using stirring under uniform, measured irradiation at 5 mWcm^-2. At intervals, the cuvette was removed from magnetic stirrer and absorption and fluorescence emission spectrum (λexc = 405 nm) acquired. The initial absorption bleaching rate constants (kblA) for Ce6 and conjugates were evaluated as reported.

Data set [5] concerns K562 sst2+ cells. Put plainly: Cellular uptake in K562 sst2+ and WT cells. Type of data set: cell-based, human. To be noted: 1 µM. The protocol:
Stock solutions of Ce6 and Ce6-conjugates (1 mM) were dissolved in 80% DMSO and were stored in the dark at −20°C. Before experiments, the solutions were diluted to a concentration of 0.1 mM in 20% DMSO. K562 sst2+ or WT (3×10^5) in 1 ml RPMI 1640 serum-free or supplemented with 5% FCS were incubated with Ce6 or with conjugate (1 µM) for 15 min to 24 h in the dark at 37°C. After incubation, the cells were centrifuged, cell pellet dissolved in 2% SDS and fluorescence emission spectra (λexc = 405 nm) recorded. Photosensitizer concentrations were calculated in triplicate according to a calibration curve generated by mixing a known concentration of photosensitizer with a lysated control samples.

Data set [6] is described as follows: 1-Octanol/PBS partition coefficient. To be noted: 1-octanol / PBS pH = 7.4; Poct/buffer = Coct/Cbuffer; stock 0.6 mM in DMSO; duplicates. In kind it is physicochemical. The protocol:
Partition coefficient. Stock solutions of Ce6 and conjugates (0.6 mM) were prepared in DMSO. Lipophilicity was characterized by their partition coefficient Poct/buffer = Coct/Cbuffer between two solvents 1-octanol (oct) and PBS, pH = 7.4 (buffer). Measurements were carried out in duplicates as described by Cunderlikova et al.

Data set [7] has as its system sst2+ AR42J acinar pancreas tumors. The experiment in a line: Intra-vital fluorescence pharmacokinetics in AR42J tumors in rat skin-fold chambers. Type of data set: in vivo. To be noted: i.v. tail vein, conjugate 1 0.67 mg/kg, Ce6 0.2 mg/kg, rat skin-fold chamber. The protocol:
Intra-vital confocal fluorescence imaging was performed in single sided rat skin-fold chambers transplanted with sst2 ^+ AR42J acinar pancreas tumors as described previously. The study was approved by the animal experimental committee of the Erasmus MC. Chambers were prepared in 12 animals divided into three groups. […] The first group of animals received Ce6 at a dose of 0.2 mg/kg, the second group received conjugate 1 at a dose of 0.67 mg/kg such that the same number of Ce6 molecules were administered to each animal; (equivalent Ce6 concentration of 2.011×10^−4 M).
Animals were anesthetized using isoflurane/O2 and autofluorescence images were recorded. Drug was administered intravenously into the tail vein. Fluorescence images were acquired 5 and 20 minutes after conjugate administration after which the animal was allowed to recover. Subsequent fluorescence images were acquired under anesthesia at 1, 4, 24, 72 and 96 hrs. […] Confocal fluorescence imaging (LSM 510 Meta (Zeiss, Germany)) was performed using a 40× objective. The distribution of Ce6 fluorescence was mapped under 514 nm laser excitation in the lambda mode (539–753 nm). […] Spectra acquired from individual pixels were analyzed as a linear combination of basis spectra and fitted using a singular value decomposition algorithm. The fluorescence of Ce6 and conjugate 1 was determined in ROIs. […]

Data set [8] is described as follows: pH titration of fluorescence/absorbance (pKa). In kind it is physicochemical. To be noted: Fmax/A(λexc) versus pH, sigmoidal fit; PBS titrated with HNO3 and NaOH over pH 4.0-8.5; 0.8 µM; λexc = 408 nm. The protocol:
pH measurements. The pH titration of PBS was performed with HNO3 and NaOH over pH 4.0-8.5. The final concentration of Ce6 and Ce6-conjugates in solution was 0.8 µM. The pH was measured by Sentron pH meter (Sentron Europe, NL) and the absorption and fluorescence emission (λexc = 408 nm) profiles of solutions were recorded. The inflection point of titration curves (pKa) were evaluated as reported. Briefly, the results of fluorescence titrations are presented in terms of a plot of fluorescence intensity as a function of pH with the constant concentration of the compound used throughout measurements. However, variations of fluorescence intensity are due to at least two contributions: the changes of molar extinction coefficient (differed absorbed intensity) and the changes of quantum efficiency with pH. To eliminate the influence of the molar extinction coefficient variations, the ratio of fluorescence intensity at the peak position to the absorbance at the excitation wavelength was plotted, followed by sigmoidal function fitting procedure (Figures S2-S4).

The test system of data set [9] is K562 sst2+ cells. Put plainly: In vitro PDT phototoxicity, K562 sst2+ cells. Type of data set: cell-based, human. The method, then:
In vitro PDT experiments were performed to determine the phototoxicity of free Ce6 and conjugates. K562 sst2+ and WT cells were seeded in L-polylysine-coated (10 µg/ml) 96-well (8×10^3/well) and 24-well (4×10^4/well) and incubated overnight in 5% CO2 at 37°C. […] After incubation, cells were washed. Fresh serum-free medium was added, and cells were illuminated with 652 nm to a dose from 0.5 to 5 J cm^−2 at 5 mW.cm^−2. Thereafter, serum-containing medium was added and cells were allowed to grow for an additional 3 days in 5% FCS medium. Toxicity was determined by: measurement of DNA contents using the bisbenzimide fluorescent dye (Hoechst 33258, Boehring Diagnostics, CA, USA) and measurement of mitochondrial dehydrogenase cleavage of WST-1 reagent (Roche Diagnostics, Germany), [39]. Experiments were done in triplicates.

For `C=Cc1c(C)c2cc3nc(c(CC(=O)O)c4[nH]c(cc5nc(cc1[nH]2)C(C)=C5CC)c(C)c4C(=O)O)[C@@H](CCC(=O)O)[C@@H]3C` [Ce6, Chlorin e6], the “ΦΔ, singlet oxygen quantum yield (reference value)” value in [1] is 0.64 and 0.64±0.08. Besides, in [2], the “ΦF, fluorescence quantum yield (reference value)” value is 0.18. For the same compound, in data set [3], the “full width at half maximum of the Q(0,0) absorption band” value turned out to be 21 nm, the “full width at half maximum of the Soret absorption band” value was 27 nm, the “maximum of fluorescence band” value came out at 661 nm and the “maximum of the Q(0,0) absorption band” value amounted to 655 nm. Besides, in [3], the “maximum of the Soret absorption band” value was determined as 402 nm. In addition, the “kblA, rate constant of initial absorption bleaching” value in data set [4] (PBS pH = 7.4, 652 nm irradiation at 5 mWcm^-2, O.D. = 0.014 at 652 nm, aerobic, stirring) was 25.69 x 10^−2 J^−1 cm^2. The photostability result in [4] (PBS, 652 nm irradiation, fluorescence bleaching) is “low photostability”. The “uptake in sst2+ cells compared to WT cells (factor)” value in data set [5] (serum-free and 5% FCS medium, fluorescence of lysate, λexc = 405 nm) is listed as “same result as for conjugate 2”. Moreover, the “concentration taken up by sst2+ cells” value in data set [5] (4 h incubation, K562 sst2+) worked out at 90 nM. Moreover, the “LogP, logarithm of partition coefficient” value in [6] was found to be 0.005±0.05. The “time of fluorescence peak in tumor tissue” value in data set [7] was “gradually increased over the first 3 days”. Also, the “pKa, inflection point of pH titration curve” value in [8] is 6.71 and 6.71±0.0947. In addition, the “cell survival after PDT compared to control cells” value in data set [9] (K562 sst2+, 1 µM, 4 h incubation, serum-free, 652 nm, 5 J.cm^−2, read after 3 days) is “almost complete inhibition of cell viability”. Further, the “light dose from which phototoxicity was seen” value in data set [9] (K562 sst2+, 1 µM, 4 h incubation, 652 nm) is listed as 0.5 J.cm^−2. In [9] (dark toxicity, K562 cells), the “effect on cell growth of photosensitizer alone in the absence of light” value is on record as “no effect on cell growth”.
